Converted amounts (≈) assume the structure as drawn. “And” between values parts separate entries of the source, which are not always exact repeats. Equal entries are not always repeated. Where two headings read alike, the source gives them in different places. Non-standard residues stand in square brackets, D forms with d. Residues, ends and D or L forms follow the SMILES beside them. *: point of attachment. MeO(CH2CH2O)23CH2CH2CO = COCCOCCOCCOCCOCCOCCOCCOCCOCCOCCOCCOCCOCCOCCOCCOCCOCCOCCOCCOCCOCCOCCOCCOCCC(=O)*; dDab = NCC[C@@H](N)C(=O)O; dDap = NC[C@@H](N)C(=O)O
Experiments:
[1] = system: A. baumannii strains resistant to Polymyxin B and Colistin; type: cell-based
Description: Gram-Negative Bacterial Strains used in this Study: All the A. baumannii strains used in this study were 1) obtained from the collection of Dr. Anthony A. Campagnari at the University of Buffalo and originally isolated from different patients and organs/tissues (strain 649, blood; strain 689, groin; strain 759, gluteus; strain 884, axilla; strain 985, pleural fluid); 2) were purchased from the American Type Culture Collection (ATCC, Manassas, Va., USA) (strain ATCC 17978, fatal meningitis; and strain ATCC 19606, urine); 3) obtained from MERCK (M89941, M89949, M89951, M89952, M89953, M89955 and M89963). These seven A. baumannii strains were resistant to polymyxin B and polymyxin E (Colistin).
Measurement of Antimicrobial Activity (MIC): The minimal inhibitory concentration (MIC) is defined as the lowest peptide concentration that inhibited bacterial growth. MICs were measured by a standard microtiter dilution method in Mueller Hinton (MH) medium. Briefly, cells were grown overnight at 37° C. in MH broth and were diluted in the same medium. […] The plates were incubated at 37° C. for 24 h, and the MICs were determined.

[2] = Hemolytic activity; type: cell-based, human; details: 1% human erythrocytes (red blood cells), pH 7.4
Description: (§1) Hemoglobin release was determined spectrophotometrically at 570 nm. […] […] […] With the peptides used in this study the inventors used the HC30/MIC ratio value to calculate the therapeutic index.

[3] = system: human red blood cells; experiment: Hemolytic activity; type: cell-based
Description: as §1

[4] = 50% hemolysis of human red blood cells after 18 hours at 37° C.
[5] = 50% hemolysis of human red blood cells after 18 hours at 37° C., read-out: HC50

Row | SMILES | MIC ([1]; strain MB9941 (Table 9C)) | MIC ([1]; strain MB9949 (Table 9C)) | MIC ([1]; strain MB9951 (Table 9C)) | MIC ([1]; strain MB9952 (Table 9C)) | MIC ([1]; strain MB9953 (Table 9C)) | MIC ([1]; strain MB9955 (Table 9C)) | MIC ([1]; strain MB9963 (Table 9C)) | HC50 at 18 h ([2]; human) | HC50 [3] | HC50 [3, 4] | HC50 at 18 h [2, 5] | Hemolysis of human red blood cells, in words ([3]; FIG. 10)
1 | CC(=O)N[C@H](CCCCN)C(=O)N[C@H](CC(C)C)C(=O)N[C@H](CCN)C(=O)N[C@H](CO)C(=O)N[C@H](CC(C)C)C(=O)N[C@H](CC(C)C)C(=O)N[C@H](CCN)C(=O)N[C@@H](C(=O)N[C@H](CC(C)C)C(=O)N[C@H](CO)C(=O)N[C@H](CCN)C(=O)N[C@H](C)C(=O)N[C@H](CCCCN)C(=O)N[C@H](C)C(=O)N[C@H](C)C(=O)N[C@H](CCCCN)C(=O)N[C@H](CC(C)C)C(=O)N[C@H](CCN)C(=O)N[C@@H](C(=O)N[C@H](CC(C)C)C(=O)N[C@H](CC(C)C)C(=O)N[C@H](CCN)C(=O)N[C@H](C)C(=O)N[C@H](CC(C)C)C(=O)N[C@H](CO)C(=O)N[C@H](CCN)C(N)=O)[C@H](C)O)[C@H](C)O [Peptide D86, Ac-KL(Dbu)SLL(Dbu)TLS(Dbu)AKAAKL(Dbu)TLL(Dbu)ALS(Dbu)-amide] (Ac-[dK][dL][dDab][dS][dL][dL][dDab][dT][dL][dS][dDab][dA][dK][dA][dA][dK][dL][dDab][dT][dL][dL][dDab][dA][dL][dS][dDab]-NH2) | 0.7 µM (≈ 1.89 µg/mL) | 0.7 µM (≈ 1.89 µg/mL) | 1.4 µM (≈ 3.78 µg/mL) | 0.7 µM (≈ 1.89 µg/mL) | 1.4 µM (≈ 3.78 µg/mL) | 0.7 µM (≈ 1.89 µg/mL) | 1.4 µM (≈ 3.78 µg/mL) | > 2000 µg/mL and > 742 µM | >741.5 µM | > 742 µM | – | –
2 | COCCOCCOCCOCCOCCOCCOCCOCCOCCOCCOCCOCCOCCOCCOCCOCCOCCOCCOCCOCCOCCOCCOCCOCCC(=O)N[C@H](CCCCN)C(=O)N[C@H](CC(C)C)C(=O)N[C@H](CCN)C(=O)N[C@H](CO)C(=O)N[C@H](CC(C)C)C(=O)N[C@H](CC(C)C)C(=O)N[C@H](CCN)C(=O)N[C@@H](C(=O)N[C@H](CC(C)C)C(=O)N[C@H](CO)C(=O)N[C@H](CCN)C(=O)N[C@H](C)C(=O)N[C@H](CCCCN)C(=O)N[C@H](C)C(=O)N[C@H](C)C(=O)N[C@H](CCCCN)C(=O)N[C@H](CC(C)C)C(=O)N[C@H](CCN)C(=O)N[C@@H](C(=O)N[C@H](CC(C)C)C(=O)N[C@H](CC(C)C)C(=O)N[C@H](CCN)C(=O)N[C@H](C)C(=O)N[C@H](CC(C)C)C(=O)N[C@H](CO)C(=O)N[C@H](CCN)C(N)=O)[C@H](C)O)[C@H](C)O [Peptide D86PEG1, m-dPEG24-D86] ({MeO(CH2CH2O)23CH2CH2CO}-[dK][dL][dDab][dS][dL][dL][dDab][dT][dL][dS][dDab][dA][dK][dA][dA][dK][dL][dDab][dT][dL][dL][dDab][dA][dL][dS][dDab]-NH2) | 1.1 µM (≈ 4.13 µg/mL) | 2.1 µM (≈ 7.88 µg/mL) | 4.1 µM (≈ 15.4 µg/mL) | 4.1 µM (≈ 15.4 µg/mL) | 8.3 µM (≈ 31.2 µg/mL) | 1.1 µM (≈ 4.13 µg/mL) | 4.1 µM (≈ 15.4 µg/mL) | – | – | 136.7 µM | 363 µg/mL and 137 µM | –
3 | CC(=O)N[C@H](CCCCN)C(=O)N[C@H](CC(C)C)C(=O)N[C@H](CCCCN)C(=O)N[C@H](CO)C(=O)N[C@H](CC(C)C)C(=O)N[C@H](CC(C)C)C(=O)N[C@H](CCCCN)C(=O)N[C@@H](C(=O)N[C@H](CC(C)C)C(=O)N[C@H](CO)C(=O)N[C@H](C)C(=O)N[C@H](C)C(=O)N[C@H](CCCCN)C(=O)N[C@H](CCCCN)C(=O)N[C@H](CCCCN)C(=O)N[C@H](CCCCN)C(=O)N[C@H](CC(C)C)C(=O)N[C@H](C)C(=O)N[C@@H](C(=O)N[C@H](CC(C)C)C(=O)N[C@H](CC(C)C)C(=O)N[C@H](CCCCN)C(=O)N[C@H](C)C(=O)N[C@H](CC(C)C)C(=O)N[C@H](CO)C(=O)N[C@H](CCCCN)C(N)=O)[C@H](C)O)[C@H](C)O [Peptide D88, Ac-KL(Lys)SLL(Lys)TLSAAK(Lys)(Lys)KLATLL(Lys)ALS(Lys)-amide] (Ac-[dK][dL][dK][dS][dL][dL][dK][dT][dL][dS][dA][dA][dK][dK][dK][dK][dL][dA][dT][dL][dL][dK][dA][dL][dS][dK]-NH2) | 0.7 µM (≈ 2.01 µg/mL) | 0.7 µM (≈ 2.01 µg/mL) | 0.3 µM (≈ 0.86 µg/mL) | 0.3 µM (≈ 0.86 µg/mL) | 0.3 µM (≈ 0.86 µg/mL) | 0.3 µM (≈ 0.86 µg/mL) | 0.3 µM (≈ 0.86 µg/mL) | 231 µg/mL and 80.6 µM | 80.6 µM | – | – | –
4 | CC(=O)N[C@H](CCCCN)C(=O)N[C@H](CC(C)C)C(=O)N[C@H](CCN)C(=O)N[C@H](CO)C(=O)N[C@H](CC(C)C)C(=O)N[C@H](CC(C)C)C(=O)N[C@H](CCN)C(=O)N[C@@H](C(=O)N[C@H](CC(C)C)C(=O)N[C@H](CO)C(=O)N[C@H](C)C(=O)N[C@H](C)C(=O)N[C@H](CCCCN)C(=O)N[C@H](CCN)C(=O)N[C@H](CCN)C(=O)N[C@H](CCCCN)C(=O)N[C@H](CC(C)C)C(=O)N[C@H](C)C(=O)N[C@@H](C(=O)N[C@H](CC(C)C)C(=O)N[C@H](CC(C)C)C(=O)N[C@H](CCN)C(=O)N[C@H](C)C(=O)N[C@H](CC(C)C)C(=O)N[C@H](CO)C(=O)N[C@H](CCN)C(N)=O)[C@H](C)O)[C@H](C)O [Peptide D89, Ac-KL(Dbu)SLL(Dbu)TLSAAK(Dbu)(Dbu)KLATLL(Dbu)ALS(Dbu)-amide] (Ac-[dK][dL][dDab][dS][dL][dL][dDab][dT][dL][dS][dA][dA][dK][dDab][dDab][dK][dL][dA][dT][dL][dL][dDab][dA][dL][dS][dDab]-NH2) | 0.7 µM (≈ 1.89 µg/mL) | 0.7 µM (≈ 1.89 µg/mL) | 0.7 µM (≈ 1.89 µg/mL) | 0.7 µM (≈ 1.89 µg/mL) | 0.7 µM (≈ 1.89 µg/mL) | 0.7 µM (≈ 1.89 µg/mL) | 0.7 µM (≈ 1.89 µg/mL) | > 3000 µg/mL and > 1.11 mM | – | – | – | –
5 | CC(=O)N[C@H](CCCCN)C(=O)N[C@H](CC(C)C)C(=O)N[C@H](CCN)C(=O)N[C@H](CO)C(=O)N[C@H](CC(C)C)C(=O)N[C@H](CC(C)C)C(=O)N[C@H](CCN)C(=O)N[C@@H](C(=O)N[C@H](CC(C)C)C(=O)N[C@H](CO)C(=O)N[C@H](CCN)C(=O)N[C@H](C)C(=O)N[C@H](CCCCN)C(=O)N[C@H](C)C(=O)N[C@H](C)C(=O)N[C@H](CCCCN)C(=O)N[C@H](CC(C)C)C(=O)N[C@H](CCN)C(=O)N[C@@H](C(=O)N[C@H](CC(C)C)C(=O)N[C@H](CC(C)C)C(=O)N[C@H](CCN)C(=O)N[C@H](C)C(=O)N[C@H](CC(C)C)C(=O)N[C@H](CO)C(=O)N[C@H](CO)C(N)=O)[C@H](C)O)[C@H](C)O [Peptide D102, Ac-KL(Dbu)SLL(Dbu)TLS(Dbu)AKAAKL(Dbu)TLL(Dbu)ALSS-amide] (Ac-[dK][dL][dDab][dS][dL][dL][dDab][dT][dL][dS][dDab][dA][dK][dA][dA][dK][dL][dDab][dT][dL][dL][dDab][dA][dL][dS][dS]-NH2) | – | – | – | – | – | – | – | – | – | – | > 2000 µg/mL and > 708 µM | basically no hemolysis
6 | CC(=O)N[C@H](CCCCN)C(=O)N[C@H](CC(C)C)C(=O)N[C@H](CN)C(=O)N[C@H](CO)C(=O)N[C@H](CC(C)C)C(=O)N[C@H](CC(C)C)C(=O)N[C@H](CN)C(=O)N[C@@H](C(=O)N[C@H](CC(C)C)C(=O)N[C@H](CO)C(=O)N[C@H](CN)C(=O)N[C@H](C)C(=O)N[C@H](CCCCN)C(=O)N[C@H](C)C(=O)N[C@H](C)C(=O)N[C@H](CCCCN)C(=O)N[C@H](CC(C)C)C(=O)N[C@H](CN)C(=O)N[C@@H](C(=O)N[C@H](CC(C)C)C(=O)N[C@H](CC(C)C)C(=O)N[C@H](CN)C(=O)N[C@H](C)C(=O)N[C@H](CC(C)C)C(=O)N[C@H](CO)C(=O)N[C@H](CN)C(N)=O)[C@H](C)O)[C@H](C)O [Peptide D105, Ac-KL(Dpr)SLL(Dpr)TLS(Dpr)AKAAKL(Dpr)TLL(Dpr)ALS(Dpr)-amide] | 0.8 µM (≈ 2.09 µg/mL) | 0.8 µM (≈ 2.09 µg/mL) | 3.0 µM (≈ 7.84 µg/mL) | 0.8 µM (≈ 2.09 µg/mL) | 3.0 µM (≈ 7.84 µg/mL) | 0.8 µM (≈ 2.09 µg/mL) | 1.5 µM (≈ 3.92 µg/mL) | > 3000 µg/mL and > 1.15 mM | – | – | – | –
7 | CC(=O)N[C@H](CCCCN)C(=O)N[C@H](CC(C)C)C(=O)N[C@H](CN)C(=O)N[C@H](CO)C(=O)N[C@H](CC(C)C)C(=O)N[C@H](CC(C)C)C(=O)N[C@H](CN)C(=O)N[C@@H](C(=O)N[C@H](CC(C)C)C(=O)N[C@H](CO)C(=O)N[C@H](C)C(=O)N[C@H](C)C(=O)N[C@H](CCCCN)C(=O)N[C@H](CN)C(=O)N[C@H](CN)C(=O)N[C@H](CCCCN)C(=O)N[C@H](CC(C)C)C(=O)N[C@H](C)C(=O)N[C@@H](C(=O)N[C@H](CC(C)C)C(=O)N[C@H](CC(C)C)C(=O)N[C@H](CN)C(=O)N[C@H](C)C(=O)N[C@H](CC(C)C)C(=O)N[C@H](CO)C(=O)N[C@H](CN)C(N)=O)[C@H](C)O)[C@H](C)O [Peptide D106, Ac-KL(Dpr)SLL(Dpr)TLSAAK(Dpr)(Dpr)KLATLL(Dpr)ALs(Dpr)-amide] (Ac-[dK][dL][dDap][dS][dL][dL][dDap][dT][dL][dS][dA][dA][dK][dDap][dDap][dK][dL][dA][dT][dL][dL][dDap][dA][dL][dS][dDap]-NH2) | 0.8 µM (≈ 2.09 µg/mL) | 0.8 µM (≈ 2.09 µg/mL) | 1.5 µM (≈ 3.92 µg/mL) | 0.8 µM (≈ 2.09 µg/mL) | 0.8 µM (≈ 2.09 µg/mL) | 0.4 µM (≈ 1.05 µg/mL) | 0.8 µM (≈ 2.09 µg/mL) | 889 µg/mL and 340 µM | 340.2 µM | – | – | –

Reference: patent US10874745B2, “Antimicrobial peptides and methods of treating gram-negative pathogens: polar and non-polar face analogs” (priority 2017, dated 2020)
